{"source": "patent US20100062042A1", "about": "“Methods, Systems and Devices for Administration of Chlorine Dioxide” (priority 2008, published 2010)", "origin": "cited, not measured here", "key": {"[1]": {"test_system": "methicillin-resistant Staphylococcus aureus (MRSA)", "settings": "see U.S. Application No. 61/150,685"}, "[2]": {"settings": "particularly in chilled water"}, "[3]": {"test_system": "Pseudomonas aeruginosa (P. aeruginosa)", "settings": "see U.S. Application No. 61/150,685"}}, "data": [{"molecule": "[O][Cl+][O-]", "note": "[chlorine dioxide, Chlorine dioxide]", "values": [{"measurement": "Effectiveness against MRSA", "setting": "[1]", "value": "effective"}, {"measurement": "Solubility in water", "setting": "[2]", "value": "high solubility in water"}, {"measurement": "Effectiveness against P. aeruginosa", "setting": "[3]", "value": "effective"}]}]}
